Data as given in US20240228458A1, “PYRIMIDINE DERIVATIVE HAVING PROTEIN KINASE INHIBITORY ACTIVITY, AND THERAPEUTIC PHARMACEUTICAL COMPOSITION COMPRISING SAME” (THERAPEX CO., LTD., priority 2021, published 2024).

Legend:
Format in all cases: cell-based
[1] = system: Ba/F3 cells expressing L858R/T790M (EGFR-LT); experiment: Growth inhibition (GI50) of Ba/F3 cells expressing L858R/T790M (EGFR-LT), Celltiter glo; details: Mus musculus, BaF3, 72 h
In short: (§1)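 Steps: plate engineered Ba/F3 cells (100,000 cells/ml); wait 4 h; add compound as a 4-fold, 10-point dilution series made from 2 mM stock, DMSO 0.5%; incubate 72 h at 37 °C under 5% CO2; measure ATP-based viability with CellTiter-Glo; calculate GI50.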

[2] = system: Ba/F3 cells expressing del19/T790M/C797S (EGFR-DTC); experiment: Growth inhibition (GI50) of Ba/F3 cells expressing del19/T790M/C797S (EGFR-DTC), Celltiter glo; details: Mus musculus, BaF3, 72 h
In short: as §1

parental Ba/F3 cell line = experiment: Growth inhibition (GI50) of the parental Ba/F3 cell line (not introduced with EGFR variants), Celltiter glo; details: Mus musculus, BaF3, 72 h, parental Ba/F3 cells
In short: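 Parental Ba/F3 cells (100,000 cells/ml) were treated with 10-point, 4-fold compound dilutions (0.5% DMSO; top stock 2 mM) for 72 h at 37 °C, 5% CO2. Viability was read by CellTiter-Glo; GI50 is the concentration (μM) giving 50% growth inhibition.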

[3] = system: Ba/F3 cells expressing del19/T790M (EGFR-DT); experiment: Growth inhibition (GI50) of Ba/F3 cells expressing del19/T790M (EGFR-DT), Celltiter glo; details: Mus musculus, BaF3, 72 h
In short: as §1

[4] = system: Ba/F3 cells expressing EGFR-wt; experiment: Growth inhibition (GI50) of Ba/F3 cells expressing EGFR-wt, Celltiter glo; details: Mus musculus, BaF3, 72 h
In short: as §1

[5] = system: Ba/F3 cells expressing L858R/T790M/C797S (EGFR-LTC); experiment: Growth inhibition (GI50) of Ba/F3 cells expressing L858R/T790M/C797S (EGFR-LTC), Celltiter glo; details: Mus musculus, BaF3, 72 h
In short: as §1

Compound | GI50 [1] | GI50 [2] | GI50 [3] | GI50 [4] | GI50 [5] | GI50 (parental Ba/F3 cell line)
COc1cc(N2CCC(N3CCN(C)CC3)CC2)c(Cl)cc1Nc1ncc(Cl)c(Nc2cc3c(cc2N(C)S(C)(=O)=O)CCO3)n1 [Example 249, N-(6-((5-chloro-2-((5-chloro-2-methoxy-4-(4-(4-methylpiperazin-1-yl)piperidin-1-yl)phenyl)amino)pyrimidin-4-yl)amino)-2,3-dihydrobenzofuran-5-yl)-N-methylmethanesulfonamide] | 1 to 25 nM | 25 to 100 nM | 1 to 25 nM | 100 to 500 nM | 1 to 25 nM | 2000 to 10000 nM
Cc1cc(Nc2ncc(Br)c(Nc3cc4c(cc3N(C)S(C)(=O)=O)CCO4)n2)c(Cl)cc1N1CCC(N2CCN(C)CC2)CC1 [Example 251, N-(6-((5-bromo-2-((2-chloro-5-methyl-4-(4-(4-methylpiperazin-1-yl)piperidin-1-yl)phenyl)amino)pyrimidin-4-yl)amino)-2,3-dihydrobenzofuran-5-yl)-N-methylmethanesulfonamide] | 25 to 100 nM | 25 to 100 nM | 1 to 25 nM | 100 to 500 nM | 1 to 25 nM | 2000 to 10000 nM
COc1cc(N2CCC(N3CCN(C)CC3)CC2)c(Cl)cc1Nc1ncc(Br)c(Nc2cc3c(cc2N(C)S(C)(=O)=O)CCO3)n1 [Example 252, N-(6-((5-bromo-2-((5-chloro-2-methoxy-4-(4-(4-methylpiperazin-1-yl)piperidin-1-yl)phenyl)amino)pyrimidin-4-yl)amino)-2,3-dihydrobenzofuran-5-yl)-N-methylmethanesulfonamide] | 1 to 25 nM | 25 to 100 nM | 1 to 25 nM | 25 to 100 nM | 1 to 25 nM | 2000 to 10000 nM
CCc1cc(Nc2ncc(Br)c(Nc3cc4c(cc3N(C)S(C)(=O)=O)CCO4)n2)c(OC)cc1N1CCC(N2CCN(C)CC2)CC1 [Example 254, N-(6-((5-bromo-2-((5-ethyl-2-methoxy-4-(4-(4-methylpiperazin-1-yl)piperidin-1-yl)phenyl)amino)pyrimidin-4-yl)amino)-2,3-dihydrobenzofuran-5-yl)-N-methylmethanesulfonamide] | 25 to 100 nM | 1 to 25 nM | 1 to 25 nM | 500 to 2000 nM | 25 to 100 nM | 500 to 2000 nM
CN1CCN(C2CCN(c3cc(Cl)c(Nc4ncc(Cl)c(Nc5cc6c(cc5N(C)S(C)(=O)=O)CCO6)n4)cc3Cl)CC2)CC1 [Example 259, N-(6-((5-chloro-2-((2,5-dichloro-4-(4-(4-methylpiperazin-1-yl)piperidin-1-yl)phenyl)amino)pyrimidin-4-yl)amino)-2,3-dihydrobenzofuran-5-yl)-N-methylmethanesulfonamide] | 25 to 100 nM | 1 to 25 nM | 25 to 100 nM | 500 to 2000 nM | 100 to 500 nM | 500 to 2000 nM
COc1cc(N2CCC(N3CCC(N(C)C)C3)CC2)c(C)cc1Nc1ncc(Br)c(Nc2cc3c(cc2N(C)S(C)(=O)=O)CCO3)n1 (stereo not drawn) [Example 262, N-(6-((5-bromo-2-((4-(4-(3-(dimethylamino)pyrrolidin-1-yl)piperidin-1-yl)-2-methoxy-5-methylphenyl)amino)pyrimidin-4-yl)amino)-2,3-dihydrobenzofuran-5-yl)-N-methylmethanesulfonamide] | 25 to 100 nM | 25 to 100 nM | 1 to 25 nM | 100 to 500 nM | 25 to 100 nM | 25 to 100 nM
Cc1cc(Nc2ncc(Cl)c(Nc3cc4c(cc3N(C)S(C)(=O)=O)CCO4)n2)c(Cl)cc1N1CCC(N2CCN(C)CC2)CC1 [Example 263, N-(6-((5-chloro-2-((2-chloro-5-methyl-4-(4-(4-methylpiperazin-1-yl)piperidin-1-yl)phenyl)amino)pyrimidin-4-yl)amino)-2,3-dihydrobenzofuran-5-yl)-N-methylmethanesulfonamide] | 100 to 500 nM | 500 to 2000 nM | 100 to 500 nM | 500 to 2000 nM | 100 to 500 nM | > 10000 nM

Now from value to compound, other results behind:

GI50 [1] | GI50 [2] | GI50 [3] | GI50 [4] | GI50 [5] | Compound | GI50 (parental Ba/F3 cell line)
100 to 500 nM | 100 to 500 nM | 25 to 100 nM | 500 to 2000 nM | 100 to 500 nM | CN1CCN(C2CCN(c3ccc4cc(Nc5ncc(Br)c(Nc6cc7c(cc6NS(C)(=O)=O)CCO7)n5)ccc4n3)CC2)CC1 [Example 247, N-(6-((5-bromo-2-((2-(4-(4-methylpiperazin-1-yl)piperidin-1-yl)quinolin-6-yl)amino)pyrimidin-4-yl)amino)-2,3-dihydrobenzofuran-5-yl)methanesulfonamide] | 2000 to 10000 nM
1 to 25 nM | 25 to 100 nM | 1 to 25 nM | 100 to 500 nM | 1 to 25 nM | COc1cc(N2CCC(N3CCN(C)CC3)CC2)c(C)cc1Nc1ncc(Cl)c(Nc2cc3c(cc2N(C)S(C)(=O)=O)CCO3)n1 [Example 248, N-(6-((5-chloro-2-((2-methoxy-5-methyl-4-(4-(4-methylpiperazin-1-yl)piperidin-1-yl)phenyl)amino)pyrimidin-4-yl)amino)-2,3-dihydrobenzofuran-5-yl)-N-methylmethanesulfonamide] | 2000 to 10000 nM
1 to 25 nM | 1 to 25 nM | 1 to 25 nM | 100 to 500 nM | 1 to 25 nM | COc1cc(N2CCC(N3CCN(C)CC3)CC2)c(C)cc1Nc1ncc(Br)c(Nc2cc3c(cc2N(C)S(C)(=O)=O)CCO3)n1 [Example 250, N-(6-((5-bromo-2-((2-methoxy-5-methyl-4-(4-(4-methylpiperazin-1-yl)piperidin-1-yl)phenyl)amino)pyrimidin-4-yl)amino)-2,3-dihydrobenzofuran-5-yl)-N-methylmethanesulfonamide] | 2000 to 10000 nM
25 to 100 nM | 1 to 25 nM | 25 to 100 nM | 500 to 2000 nM | 25 to 100 nM | CN1CCN(C2CCN(c3cc(Cl)c(Nc4ncc(Br)c(Nc5cc6c(cc5N(C)S(C)(=O)=O)CCO6)n4)cc3Cl)CC2)CC1 [Example 253, N-(6-((5-bromo-2-((2,5-dichloro-4-(4-(4-methylpiperazin-1-yl)piperidin-1-yl)phenyl)amino)pyrimidin-4-yl)amino)-2,3-dihydrobenzofuran-5-yl)-N-methylmethanesulfonamide] | 100 to 500 nM
100 to 500 nM | 25 to 100 nM | 25 to 100 nM | 2000 to 10000 nM | 100 to 500 nM | COc1cc(N2CCC(N3CCN(C(F)(F)F)CC3)CC2)c(C)cc1Nc1ncc(Br)c(Nc2cc3c(cc2N(C)S(C)(=O)=O)CCO3)n1 [Example 255, N-(6-((5-bromo-2-((2-methoxy-5-methyl-4-(4-(4-(trifluoromethyl)piperazin-1-yl)piperidin-1-yl)phenyl)amino)pyrimidin-4-yl)amino)-2,3-dihydrobenzofuran-5-yl)-N-methylmethanesulfonamide] | 2000 to 10000 nM
100 to 500 nM | 25 to 100 nM | 1 to 25 nM | 100 to 500 nM | 100 to 500 nM | COc1cc(N2CCC(N3CCN(C)CC3)CC2)c(F)cc1Nc1ncc(Br)c(Nc2cc3c(cc2N(C)S(C)(=O)=O)CCO3)n1 [Example 256, N-(6-((5-bromo-2-((5-fluoro-2-methoxy-4-(4-(4-methylpiperazin-1-yl)piperidin-1-yl)phenyl)amino)pyrimidin-4-yl)amino)-2,3-dihydrobenzofuran-5-yl)-N-methylmethanesulfonamide] | 100 to 500 nM
25 to 100 nM | 100 to 500 nM | 1 to 25 nM | 100 to 500 nM | 100 to 500 nM | COc1ccc(N(C)S(C)(=O)=O)c(Nc2nc(Nc3cc(C)c(N4CCC(N5CCN(C)CC5)CC4)cc3OC)ncc2Cl)c1 [Example 260, N-(2-((5-chloro-2-((2-methoxy-5-methyl-4-(4-(4-methylpiperazin-1-yl)piperidin-1-yl)phenyl)amino)pyrimidin-4-yl)amino)-4-methoxyphenyl)-N-methylmethanesulfonamide] | 2000 to 10000 nM
25 to 100 nM | 100 to 500 nM | 1 to 25 nM | 25 to 100 nM | 25 to 100 nM | COc1cc(N2CCC(N3CCN(C4CC4)CC3)CC2)c(C)cc1Nc1ncc(Br)c(Nc2cc3c(cc2N(C)S(C)(=O)=O)CCO3)n1 [Example 261, N-(6-((5-bromo-2-((4-(4-(4-cyclopropylpiperazin-1-yl)piperidin-1-yl)-2-methoxy-5-methylphenyl)amino)pyrimidin-4-yl)amino)-2,3-dihydrobenzofuran-5-yl)-N-methylmethanesulfonamide] | 2000 to 10000 nM
1 to 25 nM | 25 to 100 nM | 1 to 25 nM | 100 to 500 nM | 25 to 100 nM | COc1cc(N2CCC(N3CCCN(C)CC3)CC2)c(Cl)cc1Nc1ncc(Cl)c(Nc2cc3c(cc2N(C)S(C)(=O)=O)CCO3)n1 [Example 264, N-(6-((5-chloro-2-((5-chloro-2-methoxy-4-(4-(4-methyl-1,4-diazepan-1-yl)piperidin-1-yl)phenyl)amino)pyrimidin-4-yl)amino)-2,3-dihydrobenzofuran-5-yl)-N-methylmethanesulfonamide] | 2000 to 10000 nM
